Reference: ChEMBL document CHEMBL5346967, “Discovery of BI 7446: A Potent Cyclic Dinucleotide STING Agonist with Broad-Spectrum Variant Activity for the Treatment of Cancer” (J Med Chem, 2023)

How the values were obtained:
[1] = biological target: T1, Stimulator of interferon genes protein (Homo sapiens, UniProt Q86WV6); experiment: Agonist activity at human STING expressed in human THP-1 cells expressing IRF inducible SEAP reporter construct assessed as increase in interferon production incubated for 24 hrs by QUANTI-Blue colorimetric assay; format: cell-based
Target sequence in this assay (Q86WV6 whole entry): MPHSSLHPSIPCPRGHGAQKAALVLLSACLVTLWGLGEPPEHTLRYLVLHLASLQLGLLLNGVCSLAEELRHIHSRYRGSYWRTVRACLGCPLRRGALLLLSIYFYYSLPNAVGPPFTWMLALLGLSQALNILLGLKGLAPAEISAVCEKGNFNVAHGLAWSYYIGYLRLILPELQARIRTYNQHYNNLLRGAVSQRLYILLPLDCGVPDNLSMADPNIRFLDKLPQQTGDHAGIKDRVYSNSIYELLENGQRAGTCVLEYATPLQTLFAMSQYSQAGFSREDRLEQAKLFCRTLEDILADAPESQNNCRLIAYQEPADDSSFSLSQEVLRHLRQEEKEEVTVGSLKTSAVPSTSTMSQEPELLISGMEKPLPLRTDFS

[2] = biological target: T1, Stimulator of interferon genes protein; experiment: Agonist activity at human wild type STING overexpressed in STING knockout human THP1-Blue ISG cells expressing IRF inducible SEAP reporter construct assessed as increase in interferon production by measuring SEAP activity incubated for 24 hrs by Fingerprinting based QUANTI-Blue colorimetric assay; format: cell-based
Target sequence in this assay (Q86WV6 whole entry): as above

[3] = biological target: T1, Stimulator of interferon genes protein; experiment: Agonist activity at human STING HAQ variant overexpressed in STING knockout human THP1-Blue ISG cells expressing IRF inducible SEAP reporter construct assessed as increase in interferon production by measuring SEAP activity incubated for 24 hrs by Fingerprinting based QUANTI-Blue colorimetric assay; format: cell-based
Target sequence in this assay (Q86WV6 whole entry, looked up, change not shown): as the sequence (Q86WV6 whole entry) above

[4] = biological target: T1, Stimulator of interferon genes protein; experiment: Agonist activity at human STING REF variant overexpressed in STING knockout human THP1-Blue ISG cells expressing IRF inducible SEAP reporter construct assessed as increase in interferon production by measuring SEAP activity incubated for 24 hrs by Fingerprinting based QUANTI-Blue colorimetric assay; format: cell-based
Target sequence in this assay (Q86WV6 whole entry, looked up, change not shown): as the sequence (Q86WV6 whole entry) above

[5] = biological target: T1, Stimulator of interferon genes protein; experiment: Agonist activity at human STING AQ variant overexpressed in STING knockout human THP1-Blue ISG cells expressing IRF inducible SEAP reporter construct assessed as increase in interferon production by measuring SEAP activity incubated for 24 hrs by Fingerprinting based QUANTI-Blue colorimetric assay; format: cell-based
Target sequence in this assay (Q86WV6 whole entry, looked up, change not shown): as the sequence (Q86WV6 whole entry) above

[6] = biological target: T1, Stimulator of interferon genes protein; experiment: Agonist activity at human STING Q variant overexpressed in STING knockout human THP1-Blue ISG cells expressing IRF inducible SEAP reporter construct assessed as increase in interferon production by measuring SEAP activity incubated for 24 hrs by Fingerprinting based QUANTI-Blue colorimetric assay; format: cell-based
Target sequence in this assay (Q86WV6 whole entry, looked up, change not shown): as the sequence (Q86WV6 whole entry) above

[7] = biological target: T1, Stimulator of interferon genes protein; experiment: Agonist activity at human STING in STING knockout human THP1-Blue ISG cells expressing IRF inducible SEAP reporter construct assessed as increase in interferon production by measuring SEAP activity incubated for 24 hrs by Fingerprinting based QUANTI-Blue colorimetric assay; format: cell-based
Target sequence in this assay (Q86WV6 whole entry): as above

[8] = biological target: T1, Stimulator of interferon genes protein; settings: filed as agonist
Target sequence in this assay (Q86WV6 whole entry): as above
Description: Binding affinity to recombinant human wild type STING (155 to 341 residues) expressed in Escherichia coli BL21 DE3 assessed as thermal stabilization by measuring change in melting temperature by differential scanning fluorimetry

[9] = biological target: hERG (KCNH2) (Homo sapiens, UniProt Q12809); experiment: Inhibition of human ERG at 10 uM; format: toxicity
[10] = Stability in human plasma assessed as half life at 1 uM by HPLC/MS/MS analysis; format: ADME, cell-free
[11] = Stability in mouse plasma assessed as half life at 1 uM by HPLC/MS/MS analysis; format: ADME, cell-free
[12] = Protein binding in human plasma assessed as unbound fraction at 3 uM incubated for 2 hrs by equilibrium dialysis based HPLC/MS/MS analysis; format: ADME, cell-free
[13] = Protein binding in mouse plasma assessed as unbound fraction at 3 uM incubated for 2 hrs by equilibrium dialysis based HPLC/MS/MS analysis; format: ADME, cell-free
[14] = Aqueous solubility of compound in phosphate buffer at pH 7.6 incubated for 2 hrs by HPLC-UV analysis; format: physicochemical
[15] = Aqueous solubility of compound in 0.9% NaCl buffer at pH 6.4 incubated for 2 hrs by HPLC-UV analysis; format: physicochemical
[16] = Chemical stability of compound in phosphate buffer assessed as compound degradation at 1 mg/ml incubated for 8 weeks at 40 degreeC by HPLC-UV analysis; format: physicochemical; settings: read-out: Drug degradation
[17] = Chemical stability of compound in 0.9% NaCl buffer assessed as compound degradation at 1 mg/ml incubated for 8 weeks at 40 degreeC by HPLC-UV analysis; format: physicochemical; settings: read-out: Drug degradation
[18] = Elimination half life in BALB/c syngeneic mouse tumor xenografted with mouse 4T1 cells at 0.16 to 1.4 mg/kg,IT and measured upto 25 hrs by HPLC/MS/MS analysis; format: ADME, organism-based, Neoplasm; settings: dose 0.16-1.4 mg/kg, read-out: beta t1/2 (converted)
[19] = Clearance in C57BL/6 mouse plasma assessed as hepatic blood flow at 10 micromol/kg, iv by HPLC/MS/MS analysis; format: ADME, organism-based; settings: in vivo, at 10 µmol/kg
[20] = Volume of distribution at steady state in C57BL/6 mouse at 10 micromol/kg, iv by HPLC/MS/MS analysis; format: ADME, organism-based; settings: in vivo, dose 10 µmol/kg, read-out: Vdss
[21] = MRT in C57BL/6 mouse at 10 micromol/kg, iv by HPLC/MS/MS analysis; format: ADME, organism-based; settings: in vivo, dose 10 µmol/kg
[22] = Clearance in C57BL/6 mouse plasma assessed as hepatic blood flow at 1 micromol/kg, iv by HPLC/MS/MS analysis; format: ADME, organism-based; settings: in vivo, at 1 µmol/kg
[23] = Volume of distribution at steady state in C57BL/6 mouse at 1 micromol/kg, iv by HPLC/MS/MS analysis; format: ADME, organism-based; settings: in vivo, dose 1 µmol/kg, read-out: Vdss
[24] = MRT in C57BL/6 mouse at 1 micromol/kg, iv by HPLC/MS/MS analysis; format: ADME, organism-based; settings: in vivo, dose 1 µmol/kg
[25] = biological target: T2, Stimulator of interferon genes protein (Mus musculus) (UniProt Q3TBT3); settings: filed as agonist
T2 sequence (whole entry): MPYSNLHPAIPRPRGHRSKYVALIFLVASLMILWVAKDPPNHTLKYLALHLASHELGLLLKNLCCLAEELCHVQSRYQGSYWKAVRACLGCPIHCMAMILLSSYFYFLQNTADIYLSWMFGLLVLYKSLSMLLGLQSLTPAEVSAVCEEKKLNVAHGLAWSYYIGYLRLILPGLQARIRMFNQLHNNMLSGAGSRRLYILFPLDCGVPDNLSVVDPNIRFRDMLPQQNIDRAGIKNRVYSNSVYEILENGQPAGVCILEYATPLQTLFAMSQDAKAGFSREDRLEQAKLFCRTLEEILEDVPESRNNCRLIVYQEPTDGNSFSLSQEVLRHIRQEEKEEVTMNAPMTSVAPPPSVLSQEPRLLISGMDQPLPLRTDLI
Description: Binding affinity to recombinant mouse STING assessed as change in melting temperature by differential scanning fluorimetry

Chain of hERG (KCNH2) (Q12809 whole entry): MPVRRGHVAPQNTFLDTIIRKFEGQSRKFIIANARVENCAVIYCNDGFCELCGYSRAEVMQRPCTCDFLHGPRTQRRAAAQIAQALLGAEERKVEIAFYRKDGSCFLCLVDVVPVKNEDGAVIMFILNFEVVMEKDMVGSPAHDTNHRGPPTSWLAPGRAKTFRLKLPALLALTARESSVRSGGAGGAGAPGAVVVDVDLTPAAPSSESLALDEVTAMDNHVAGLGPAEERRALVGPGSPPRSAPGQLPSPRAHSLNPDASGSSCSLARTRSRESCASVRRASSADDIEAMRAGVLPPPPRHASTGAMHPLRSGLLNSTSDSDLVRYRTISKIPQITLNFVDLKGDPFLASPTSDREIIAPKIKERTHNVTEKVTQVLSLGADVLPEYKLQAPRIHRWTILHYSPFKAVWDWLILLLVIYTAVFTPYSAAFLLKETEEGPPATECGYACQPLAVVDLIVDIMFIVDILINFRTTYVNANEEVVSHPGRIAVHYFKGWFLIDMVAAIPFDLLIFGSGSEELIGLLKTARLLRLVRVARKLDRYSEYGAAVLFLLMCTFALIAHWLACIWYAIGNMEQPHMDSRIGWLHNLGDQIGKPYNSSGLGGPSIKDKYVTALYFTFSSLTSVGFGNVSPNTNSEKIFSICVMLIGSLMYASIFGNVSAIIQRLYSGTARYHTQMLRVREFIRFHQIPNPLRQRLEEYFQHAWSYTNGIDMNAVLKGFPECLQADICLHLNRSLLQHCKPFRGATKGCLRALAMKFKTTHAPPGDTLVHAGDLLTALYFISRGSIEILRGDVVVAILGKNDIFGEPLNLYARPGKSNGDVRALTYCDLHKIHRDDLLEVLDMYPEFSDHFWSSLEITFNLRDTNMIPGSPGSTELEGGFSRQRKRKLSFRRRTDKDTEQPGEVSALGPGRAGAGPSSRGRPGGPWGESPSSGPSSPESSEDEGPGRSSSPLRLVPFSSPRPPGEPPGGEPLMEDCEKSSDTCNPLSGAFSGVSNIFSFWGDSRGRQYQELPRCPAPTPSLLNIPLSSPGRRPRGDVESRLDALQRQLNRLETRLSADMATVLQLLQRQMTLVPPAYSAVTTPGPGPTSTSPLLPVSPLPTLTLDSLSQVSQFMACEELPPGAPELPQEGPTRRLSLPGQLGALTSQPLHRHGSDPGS

SMILES	EC50 [1] [nM]	EC50 [2] [nM]	EC50 [3] [nM]	EC50 [4] [nM]	EC50 [5] [nM]	EC50 [6] [nM]	EC50 [7] [nM]	deltaTm [8] [K]	also measured
Nc1ncnc2c1ncn2[C@@H]1O[C@@H]2CO[P@@](=O)(S)O[C@@H]3[C@H](O)[C@@H](CO[P@@](=O)(S)O[C@H]2[C@H]1F)O[C@H]3c1cnn2c(=O)[nH]ncc12	140	830	1040	24300	680	3380	> 50000	18	
O=c1[nH]ncc2c1ncn2[C@@H]1O[C@@H]2CO[P@@](=O)(S)O[C@H]3[C@@H](O)[C@H](n4cnc5ccccc54)O[C@@H]3CO[P@@](=O)(S)O[C@@H]1[C@@H]2O	> 100000							3.6	
CO[C@@H]1[C@@H]2O[P@](=O)(S)OC[C@H]3O[C@@H](n4cnc5c(=O)[nH]ncc54)[C@H](O[P@](=O)(S)OC[C@H]2O[C@H]1n1cnc2c(N)ncnc21)[C@@H]3O	> 100000							3.7	
Nc1ncnc2c1ncn2[C@@H]1O[C@@H]2CO[P@@](=O)(S)O[C@@H]3[C@H](O)[C@@H](CO[P@@](=O)(S)O[C@H]2[C@H]1F)O[C@H]3n1cnc2c(=O)[nH]ncc21									inhibition at 10 µM [9]: 1%; half-life at 1 µM [10]: > 2.17 h; half-life at 1 µM [11]: > 2.17 h; fraction unbound at 2 h, 3 µM [12]: 0.74; fraction unbound at 2 h, 3 µM [13]: 0.77; solubility at 2 h [14]: > 10000 µg/mL; solubility at 2 h [15]: > 10000 µg/mL; degraded at 1344 h, 1 mg/ml [16]: > 0.5%; degraded at 1344 h, 1 mg/ml [17]: > 0.5%; half-life [18]: 7 h; QH [19]: 78%; Vd [20]: 2.2 L/kg; MRT [21]: 0.53 h
Nc1ncnc2c1ncn2[C@@H]1O[C@@]23CO[C@@H]1[C@@H]2O[P@](=O)(S)OC[C@H]1O[C@@H](n2cnc4c(=O)[nH]ncc42)[C@H](O[P@](=O)(S)OC3)[C@@H]1O	170							17	
O=c1[nH]ncc2c1ncn2[C@@H]1O[C@@H]2CO[P@@](=O)(S)O[C@H]3[C@@H](O)[C@H](n4cnc5cncnc54)O[C@@H]3CO[P@@](=O)(S)O[C@@H]1[C@@H]2O	230	1950	2060	> 50000	1670	22500	> 50000	13.9	
Nc1ncnc2c1ncn2[C@@H]1O[C@@H]2CO[P@@](=O)(S)O[C@@H]3[C@H](O)[C@@H](CO[P@@](=O)(S)O[C@H]2[C@H]1O)O[C@H]3n1cnc2c(N)ncnc21									inhibition at 10 µM [9]: 0.4%; half-life at 1 µM [11]: > 2.17 h; fraction unbound at 2 h, 3 µM [13]: 0.32; QH [22]: 120%; Vd [23]: 0.8 L/kg; MRT [24]: 7.2 min; deltaTm [25]: 13.5 K
Nc1ncnc2c1ncn2[C@@H]1O[C@@H]2CO[P@@](=O)(S)O[C@@H]3[C@H](O)[C@@H](CO[P@@](=O)(S)O[C@H]2[C@H]1F)O[C@H]3n1cnc2c(=O)[nH]nnc21	160	580	580	6010	610	1880	> 50000	23.9	
Nc1ncnc2c1ncn2[C@@H]1CO[C@@H]2O[P@@](=O)(S)O[C@@H]3[C@H](O)[C@@H](CO[P@@](=O)(S)O[C@H]2[C@H]1O)O[C@H]3n1cnc2c(=O)[nH]ncc21	> 100000							1.75	
